Measured values taken from PubChem BioAssay (NCI).
Several values for one entry are separate records, joined by “and”; a condition that tells them apart may be missing. Equal entries are not always repeated.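 All cell lines were grown in 96-well plates and treated with compound for 48 hours. The concentration for 50% growth inhibition is given as GI50. TGI: concentration producing complete growth inhibition.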

Experiments:
Assay in all cases: DTP human tumour cell line panel, 48 h
HCC-2998 colon = system: HCC-2998 colon
EKVX NSCLC = system: EKVX NSCLC
MCF7 breast = system: MCF7 breast
NCI-H23 lung = system: NCI-H23 lung
ACHN renal = system: ACHN renal
CCRF-CEM leukemia = system: CCRF-CEM leukemia
OVCAR-8 ovarian = system: OVCAR-8 ovarian
RXF 393 renal = system: RXF 393 renal
LOX IMVI melanoma = system: LOX IMVI melanoma
IGROV1 ovarian = system: IGROV1 ovarian

| SMILES | TGI (HCC-2998 colon) | TGI (EKVX NSCLC) | TGI (MCF7 breast) | TGI (NCI-H23 lung) | TGI (ACHN renal) | TGI (CCRF-CEM leukemia) | TGI (OVCAR-8 ovarian) | TGI (RXF 393 renal) | TGI (LOX IMVI melanoma) | TGI (IGROV1 ovarian) | GI50 (HCC-2998 colon) | GI50 (EKVX NSCLC) | GI50 (MCF7 breast) | GI50 (NCI-H23 lung) | GI50 (ACHN renal) | GI50 (CCRF-CEM leukemia) | GI50 (OVCAR-8 ovarian) | GI50 (RXF 393 renal) | GI50 (LOX IMVI melanoma) | GI50 (IGROV1 ovarian) |
| --- | --- | --- | --- | --- | --- | --- | --- | --- | --- | --- | --- | --- | --- | --- | --- | --- | --- | --- | --- | --- |
| COc1ccc(C2C(=O)c3ccc(OC)cc3OC2c2cccnc2)cc1 (centres undefined) | > 100 µM | > 100 µM | > 100 µM | > 100 µM | > 100 µM | > 100 µM | > 100 µM | > 100 µM | > 100 µM | > 100 µM |  |  |  |  |  |  |  |  |  |  |
| CCNC(=S)N/N=C(/C)c1cccc(/C(C)=N\NC(=S)NCC)n1 | > 96.7 µM | > 52.7 µM | 31.2 µM | 73.7 µM | > 66.9 µM | > 19.1 µM | 16.9 µM | 33.5 µM | 35.8 µM | > 64 µM |  |  |  |  |  |  |  |  |  |  |
| COC(=O)[C@H](C)NC(=O)[C@H](NS(=O)(=O)c1nc2ccccc2s1)c1ccccc1 | 44.5 µM | > 100 µM | > 100 µM | > 100 µM | > 100 µM | > 100 µM | 33.7 µM | 34.8 µM | 31.9 µM | > 100 µM |  |  |  |  |  |  |  |  |  |  |
| O=C1Nc2noc(=O)nc2NO1 | > 200 µM | > 200 µM | > 200 µM | > 200 µM | > 200 µM | > 200 µM | > 200 µM | > 200 µM | > 200 µM | > 200 µM |  |  |  |  |  |  |  |  |  |  |
| COc1cc2c(cc1O)NC(=O)[C@@H]1C[C@@H](O)CN1C2=O | > 100 µM | > 100 µM | > 100 µM | > 100 µM | > 100 µM | > 100 µM | > 100 µM | > 100 µM | > 100 µM | > 100 µM |  |  |  |  |  |  |  |  |  |  |
| C/C(=N\NC(=S)NC(C)(C)C)c1nc2ncccc2[nH]1 | > 68.6 µM | > 65 µM | > 100 µM | > 100 µM | > 100 µM | 35.1 µM | > 100 µM | > 100 µM | > 100 µM | 50.6 µM |  |  |  |  |  |  |  |  |  |  |
| CCCCCCCCCCCCCCCCNc1nc(=O)n(C2OC(C)C(O)C2O)cc1F (centres undefined) | 31 µM | 35.3 µM | 33 µM | 32.7 µM | 29 µM | 42.6 µM | 52.6 µM | 44.8 µM | 55.5 µM | 37.6 µM |  |  |  |  |  |  |  |  |  |  |
| N#Cc1cc(F)cc(Oc2ccc(S(=O)(=O)C(F)F)c3c2CC(F)(F)[C@H]3O)c1 | > 100 µM | > 100 µM | > 100 µM | > 100 µM | > 100 µM | > 100 µM | > 100 µM | > 100 µM | > 100 µM | > 100 µM | 48 µM | 25.3 µM | 25.7 µM | 27.6 µM | 30.4 µM | 22.9 µM | 33.8 µM | 21.5 µM | 35 µM | 37.4 µM |
| CC1=NC(=N)N=C(C)C1N=Nc1ccc2nc(C)[nH]c2c1 (centres undefined) | > 100 µM | > 100 µM | > 100 µM | > 100 µM | > 100 µM | > 100 µM | > 100 µM | > 100 µM | > 100 µM | > 100 µM |  |  |  |  |  |  |  |  |  |  |
| O=C(/C=C/c1ccccc1)c1cc(CN2CCOCC2)c(O)c(CN2CCOCC2)c1 | 33.7 µM | 98.5 µM | 32.4 µM | 60 µM | 8.26 µM | 16.7 µM | > 100 µM | 35.8 µM | 19.5 µM | > 100 µM |  |  |  |  |  |  |  |  |  |  |
| COc1ccccc1N=Nc1c(O)ccc2ccccc12 | 71 µM | 36.2 µM and 96.1 µM | > 100 µM | > 100 µM | 27.2 µM | > 100 µM | > 100 µM | 35.3 µM and 59.7 µM | > 100 µM | > 100 µM |  | 4.42 µM and 19.5 µM |  |  |  |  |  | 12.3 µM and 28.7 µM | 25.1 µM and 55.7 µM | 3.93 µM and 35.4 µM |
| O=c1c2[nH]cnc2n(-c2ccccc2)c(=S)n1-c1ccccc1 | > 100 µM | > 100 µM | > 100 µM | > 100 µM | > 100 µM | > 100 µM | > 100 µM | > 100 µM | > 100 µM | > 100 µM |  |  |  |  |  |  |  |  |  |  |
| O=c1c2ccc(Cl)cc2oc2c(CSc3ccccc3)cccc12 | > 100 µM | > 100 µM | > 100 µM | > 87.6 µM | > 65.1 µM | > 100 µM | > 100 µM | > 100 µM | > 91.9 µM | > 52 µM |  |  |  |  |  |  |  |  |  |  |
| CC(C)OC(=O)C(NC(=O)C(CC(=O)OCc1ccccc1)NC(=O)OCc1ccccc1)NC(=O)C1C(C)(C)CCC1(C)C (centres undefined) | > 56.5 µM | 12.2 µM | 28.4 µM | 23.9 µM | 14.7 µM | > 41.2 µM | 4.19 µM | 12.7 µM | 11.6 µM | 64.2 µM |  |  |  |  |  |  |  |  |  |  |
| Cc1ccc(C(=O)Nc2ccc(CP(=O)(O)O)cc2CP(=O)(O)O)cc1N | > 100 µM | > 100 µM | > 100 µM | > 100 µM | > 100 µM | > 100 µM | > 100 µM | > 100 µM | > 100 µM | > 100 µM |  |  |  |  |  |  |  |  |  |  |
| Cn1c(CO)ccc1-c1ccc(-c2ccc(CO)[se]2)[se]1 | 22.5 µM | > 100 µM | > 40 µM | > 74.8 µM | > 75.3 µM | > 21 µM | 55.6 µM | > 100 µM | 41.2 µM | 12.4 µM |  |  |  |  |  |  |  |  |  |  |
